These results are taken from patent US8580815B2, “Derivatives of azaindoles as inhibitors of protein kinases ABL and SRC” (Oribase Pharma, priority 2009, dated 2013).

Read-outs that look alike come from different tables or passages of the source.

By inhibition is commonly meant the drop in the measured response relative to a control, in per cent. In general, IC50 refers to the concentration that inhibits the measured activity by half.

Test [1] relates to K562 cells expressing kinase Bcr-AbI. The note with it: known activity; BCR-Abl+ cells, patient with CML; cited from earlier work.
In test [2] the target is Abl kinase (h) (Homo sapiens (Human), UniProt P00519). Put plainly: Cerep kinase profiling, HTRF assay, Abl kinase. It counts as biochemical. The procedure:
(§1) The inhibitory activity of the compounds of the chemical series on different protein kinases was evaluated by Cerep (Cerep Kinase Profiling Service; www.cerep.com). The kinases used in the tests in vitro are human recombinant proteins expressed in human cells, insect cells or in bacteria. […] The activity of the kinase was then detected by an HTRF assay. The HTRF assay (CisBio International) is based on fluorescence transfer, using Europium (Eu3+) cryptate and XL665 respectively as donor and acceptor. When the biotinylated or tagged substrate is phosphorylated by the kinase, it reacts with a cryptate-labelled phosphospecific antibody. Addition of Streptavidin-XL665, SA-XL665, (or anti-tag antibody XL665) leads to juxtaposition of the cryptate and of the fluorophore XL665, which is reflected in fluorescence resonance energy transfer (FRET). The intensity of FRET depends on the quantity of cryptate-labelled antibody bound to the substrate, which is proportional to the quantity of phosphorylated substrate (Mathis, G. Probing molecular interactions with homogeneous techniques based on rare earth cryptates and fluorescence energy transfer.
For orientation: In TR-FRET formats the signal depends on donor and acceptor labels being close together.

The subject of test [3] is K562 cells expressing kinase Bcr-AbI. The experiment in a line: Inhibition of cellular proliferation (MTT), K562 cells. As to conditions: for IC50: Homo sapiens. The format is cell-based, human. The procedure: Cellular tests were carried out at the Montpellier Cancer Research Centre. The inhibition of proliferation by our compounds was analysed on 2 cell lines (U937 and K562) by calculating the IC50, testing 6 concentrations in triplicate for each of the compounds and for each line.
Cells in exponential phase were seeded in 96-well plates at a concentration of 10^4 cells/100 μL/well. The final concentrations of compound in the well in contact with the cells were 0.1; 0.3; 0.9; 3.3; 10; 30; 90 μM. […]

For test [4], the target named is PDGFRα kinase (h) (Homo sapiens (Human), UniProt P16234). The experiment in a line: Cerep kinase profiling, HTRF assay, PDGFRα kinase. It counts as biochemical. As to conditions: compound incubated at 10 μM; read-out: Percentage inhibition of kinase PDGFR-α. The procedure: as §1, with “bacteria. [table]” for “bacteria.”, “transfer. Clin Chem 41, 1391-7 (1995)).” for “transfer.”

In test [5] the test system is U937 cells (BCR-Abl−).
The target of test [6] is Src kinase (h) (Homo sapiens (Human), UniProt P12931). Put plainly: Cerep kinase profiling, HTRF assay, Src kinase. The format is biochemical. The procedure: as §1
The test system of test [7] is U937 cells (BCR-Abl−). The experiment in a line: cells. The note with it: Homo sapiens, U-937, 72 h.
Test [8] has as its target c-kit kinase (h) (Homo sapiens (Human), UniProt P10721). Put plainly: Cerep kinase profiling, HTRF assay, c-kit kinase. It counts as biochemical. The note with it: compound incubated at 10 μM; read-out: Percentage inhibition of kinase c-kit. How it is done:
as §1, with “bacteria. [table]” for “bacteria.”, “transfer. Clin Chem 41, 1391-7 (1995)).” for “transfer.”

Test [9] addresses AurA/Aur2 kinase (h) (Homo sapiens (Human), UniProt O14965). Put plainly: Cerep kinase profiling, HTRF assay, Aurora-A kinase. As to conditions: compound incubated at 10 μM; read-out: Percentage inhibition of kinase Aurora-A. It counts as biochemical. How it is done:
as §1, with “bacteria. [table]” for “bacteria.”, “transfer. Clin Chem 41, 1391-7 (1995)).” for “transfer.”

The target of test [10] is Abl WT (Homo sapiens (Human), UniProt P00519). Put plainly: Reaction Biology Corp. kinase assay, Abl WT. It counts as biochemical. The note with it: Table 11; ATP at 10 μM; read-out: IC50 in nM Abl WT. How it is done: (§2) 4 compounds were tested for their capacity to inhibit various mutated kinases AbI (American company, Reaction Biology Corp.).
Test [11] deals with Abl T315I (Homo sapiens (Human), UniProt P00519, T315I). Put plainly: Reaction Biology Corp. kinase assay, mutated Abl T315I. The format is biochemical. The note with it: Table 11; ATP at 10 μM; read-out: IC50 in nM Abl T315I. The procedure: as §2
Test [12] has as its target Abl Y253F (Homo sapiens (Human), UniProt P00519, Y253F). Put plainly: Reaction Biology Corp. kinase assay, mutated Abl Y253F. The format is biochemical. The note with it: Table 11; ATP at 10 μM. The procedure:
as §2

The mark [13] stands for this setting: 10 μM, compounds tested by Cerep, read-out: % inhibition of kinase activity, Abl WT (category).
Where [14] appears, read: Table 6, compound incubated at 10 μM, read-out: Percentage inhibition of kinase Abl.
Where [15] appears, read: Table 8, compound incubated at 10 μM, read-out: Percentage inhibition of kinase Abl.
The mark [16] stands for this setting: K562, 72 h, read-out: IC50 at 72 h on K562 (category), 72 h incubation.
Where [17] appears, read: 10 μM, compounds tested by Cerep, read-out: % inhibition of kinase activity, Src (category).
[18] abbreviates: compound incubated at 10 μM, read-out: Percentage inhibition of kinase c-Src.

Sequence of Src kinase (h) (P12931 whole entry, looked up): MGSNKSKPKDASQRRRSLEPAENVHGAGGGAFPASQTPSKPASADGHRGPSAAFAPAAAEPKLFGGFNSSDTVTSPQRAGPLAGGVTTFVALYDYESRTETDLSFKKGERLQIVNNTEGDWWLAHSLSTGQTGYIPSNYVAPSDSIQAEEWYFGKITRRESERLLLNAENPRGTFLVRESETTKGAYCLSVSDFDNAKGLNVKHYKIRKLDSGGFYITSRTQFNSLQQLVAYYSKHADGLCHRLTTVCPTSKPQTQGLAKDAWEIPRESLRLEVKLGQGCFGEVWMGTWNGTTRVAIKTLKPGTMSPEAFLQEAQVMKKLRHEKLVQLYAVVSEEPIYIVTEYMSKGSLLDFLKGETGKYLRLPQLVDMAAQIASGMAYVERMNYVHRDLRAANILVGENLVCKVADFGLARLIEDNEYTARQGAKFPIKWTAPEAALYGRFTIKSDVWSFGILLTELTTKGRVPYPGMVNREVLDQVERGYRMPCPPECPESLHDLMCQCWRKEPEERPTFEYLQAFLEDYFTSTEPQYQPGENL
Sequence of c-kit kinase (h) (P10721 26-976): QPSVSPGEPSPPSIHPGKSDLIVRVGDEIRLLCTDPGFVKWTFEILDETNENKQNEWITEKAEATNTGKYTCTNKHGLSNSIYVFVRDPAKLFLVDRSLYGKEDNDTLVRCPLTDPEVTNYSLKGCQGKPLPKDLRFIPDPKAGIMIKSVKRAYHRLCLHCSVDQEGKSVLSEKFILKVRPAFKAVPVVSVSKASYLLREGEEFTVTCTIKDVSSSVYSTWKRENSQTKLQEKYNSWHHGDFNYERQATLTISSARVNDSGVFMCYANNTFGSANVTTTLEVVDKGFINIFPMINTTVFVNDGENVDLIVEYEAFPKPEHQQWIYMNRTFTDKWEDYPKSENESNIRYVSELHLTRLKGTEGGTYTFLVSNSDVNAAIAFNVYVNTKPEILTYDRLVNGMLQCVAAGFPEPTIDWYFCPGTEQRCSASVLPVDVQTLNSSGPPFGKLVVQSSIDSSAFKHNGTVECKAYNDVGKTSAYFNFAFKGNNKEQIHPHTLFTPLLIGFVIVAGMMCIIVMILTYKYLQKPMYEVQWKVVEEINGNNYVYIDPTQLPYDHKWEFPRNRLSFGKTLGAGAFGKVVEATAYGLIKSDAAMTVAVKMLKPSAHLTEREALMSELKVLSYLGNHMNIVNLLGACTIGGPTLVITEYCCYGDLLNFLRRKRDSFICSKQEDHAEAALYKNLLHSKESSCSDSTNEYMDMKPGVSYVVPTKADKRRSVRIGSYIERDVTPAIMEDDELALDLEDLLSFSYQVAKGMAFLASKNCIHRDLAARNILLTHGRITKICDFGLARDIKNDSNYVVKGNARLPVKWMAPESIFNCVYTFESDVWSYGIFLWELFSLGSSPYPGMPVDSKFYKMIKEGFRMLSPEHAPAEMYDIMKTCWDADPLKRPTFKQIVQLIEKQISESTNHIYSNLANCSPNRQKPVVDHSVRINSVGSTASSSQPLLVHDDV
Sequence of PDGFRα kinase (h) (P16234 24-1089): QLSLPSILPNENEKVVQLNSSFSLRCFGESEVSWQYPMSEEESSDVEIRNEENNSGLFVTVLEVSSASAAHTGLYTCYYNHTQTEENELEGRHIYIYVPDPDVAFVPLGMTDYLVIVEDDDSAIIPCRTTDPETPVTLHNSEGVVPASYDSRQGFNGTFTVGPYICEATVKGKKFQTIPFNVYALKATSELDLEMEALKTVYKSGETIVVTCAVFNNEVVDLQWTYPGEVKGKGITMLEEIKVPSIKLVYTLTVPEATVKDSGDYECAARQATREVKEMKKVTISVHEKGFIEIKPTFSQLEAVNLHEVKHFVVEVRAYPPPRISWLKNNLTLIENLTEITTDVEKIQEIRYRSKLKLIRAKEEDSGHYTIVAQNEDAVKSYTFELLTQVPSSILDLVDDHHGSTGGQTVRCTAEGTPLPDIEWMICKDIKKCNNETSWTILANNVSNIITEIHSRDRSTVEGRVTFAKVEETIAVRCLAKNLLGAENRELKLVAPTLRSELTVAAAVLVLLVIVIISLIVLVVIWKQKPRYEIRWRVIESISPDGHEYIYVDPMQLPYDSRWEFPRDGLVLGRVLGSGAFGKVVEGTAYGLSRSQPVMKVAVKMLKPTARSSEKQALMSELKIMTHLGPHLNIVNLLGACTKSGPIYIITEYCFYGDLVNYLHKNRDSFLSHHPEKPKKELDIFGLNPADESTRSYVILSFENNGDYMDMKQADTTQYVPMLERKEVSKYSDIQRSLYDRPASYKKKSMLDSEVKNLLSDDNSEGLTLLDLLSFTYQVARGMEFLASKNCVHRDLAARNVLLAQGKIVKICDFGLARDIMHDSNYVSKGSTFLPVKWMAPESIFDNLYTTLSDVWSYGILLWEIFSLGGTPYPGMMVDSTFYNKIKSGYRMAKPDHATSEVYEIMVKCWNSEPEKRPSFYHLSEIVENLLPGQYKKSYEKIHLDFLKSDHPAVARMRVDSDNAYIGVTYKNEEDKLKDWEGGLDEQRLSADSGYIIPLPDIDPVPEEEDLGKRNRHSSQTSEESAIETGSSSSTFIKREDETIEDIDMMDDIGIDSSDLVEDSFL
Sequence of AurA/Aur2 kinase (h) (O14965 whole entry): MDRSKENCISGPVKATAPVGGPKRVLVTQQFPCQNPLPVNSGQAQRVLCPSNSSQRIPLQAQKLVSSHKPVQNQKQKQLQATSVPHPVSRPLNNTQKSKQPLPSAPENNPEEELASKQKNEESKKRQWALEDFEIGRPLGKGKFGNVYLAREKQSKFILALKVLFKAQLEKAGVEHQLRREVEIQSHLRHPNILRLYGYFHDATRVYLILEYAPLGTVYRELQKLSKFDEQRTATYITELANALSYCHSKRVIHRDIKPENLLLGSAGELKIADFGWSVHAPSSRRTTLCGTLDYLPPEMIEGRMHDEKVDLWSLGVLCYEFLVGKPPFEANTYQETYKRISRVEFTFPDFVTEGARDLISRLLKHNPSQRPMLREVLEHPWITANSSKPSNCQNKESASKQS

In the case of `Cc1ccc(NC(=O)c2ccc(CN3CCN(C)CC3)cc2)cc1Nc1nccc(-c2cccnc2)n1` [Imatinib], the “Action of Imatinib on K562” value in test [1] is given as “Sensitive”.

On to `CN(C)CCCNC(=O)c1cc2cc(NC(=O)c3ccccc3Br)cnc2[nH]1` [ND0009, 5-(2-bromobenzamido)-N-(3-(dimethylamino)propyl)-1H-pyrrolo[2,3-b]pyridine-2-carboxamide], for which the inhibition at 10 µM in test [2] (setting [13]) was above 50%; in [2] (setting [14]) it was 100%; in test [2] (setting [15]) it was 100%; in test [4], 11%; in test [6] (setting [17]), above 50%; in test [6] (setting [18]), 90%. Moreover, the inhibition at 10 µM turned out to be 44% in [8] and 5% in test [9]. For the same compound, the “activity on the Bcr-AbI+ cells (K562), in words” value in test [3] is recorded as “active”. Moreover, the IC50 in test [3] (K562, 72 h, Table 12, 72 h of treatment, MTT, read-out: IC50 (μM) K562) was 6 µM; in test [3] (setting [16]), above 10 µM; in [3] (K562, incubation time not stated (24 h and/or 72 h), read-out: IC50 for the K562 Bcr-AbI kinase (category)), above 10 µM; in test [6] (Table 9, Cerep, read-out: IC50 in M c-Src), 2.2 µM; in test [6] (compound tested by Cerep, read-out: IC50 on kinase Src (category)), 0.1 to 10 µM; in [7] (read-out: IC50 (μM) U937, Table 12, 72 h of treatment, MTT) it was above 100 µM. For the same compound, the IC50 in [7] (read-out: IC50 at 72 h on U937 (category), 72 h incubation) was above 10 µM. Moreover, the “activity on the Bcr-AbI− cells (U937), in words” value in [5] is listed as “not on the Bcr-AbI− cells”.

On to `COC(=O)c1cc2cc(NC(=O)c3ccccc3Br)cnc2[nH]1` [ND0020, Methyl 5-(2-bromobenzamido)-1H-pyrrolo[2,3-b]pyridine-2-carboxylate], for which the IC50 in test [10] was 44.6 nM; in test [11] it was above 100000 nM; in [2] (Table 9, Cerep, 5 concentrations 10^−10 M to 10^−4 M, read-out: IC50 in M Abl) it was 0.46 µM; in test [2] (compounds tested by Cerep, read-out: IC50 on kinase Abl WT (category)), 0.1 to 10 µM; in [3] (K562, 24 h, 24 h incubation, read-out: IC50 at 24 h on K562 (category)) it was 1 to 10 µM; in [3] (setting [16]), 1 to 10 µM. The same compound gave an IC50 in test [12] below 10 nM. The inhibition at 10 µM in test [2] (setting [13]) is above 50%; in test [2] (setting [14]), 85%; in [2] (setting [15]), 85%; in test [4], 0%; in [6] (setting [17]), above 50%; in test [6] (setting [18]), 50%. Also, the inhibition at 10 µM was 10% in test [8] and 5% in [9].
